Legend:
rat MIF = molecular target: T1, rat MIF (Rattus norvegicus, UniProt P30904); assay: Binding to immobilized rat MIF by surface plasmon resonance (BIACORE 3000); conditions: 10 μM in PBS, rat MIF immobilized on sensor chip CM5
T1 construct: the region encoding MIF was amplified from the complementary DNA (cDNA) library of rat and mouse brains; made in house; host or cells: Escherichia coli BL21 (DE3)
Method: The binding of rat MIF obtained in REFERENCE EXAMPLE 6 to Compound 1 obtained in REFERENCE EXAMPLE 1 was analyzed using BIACORE 3000 (manufactured by Biacore).
Rat MIF was immobilized on a sensor chip CM5 (manufactured by Biacore). Then, phosphate buffered saline (PBS) containing 10 μM of Compound 1 was flown over the sensor chip and changes in the surface plasmon resonance signal were monitored as the binding of the compound to rat MIF.
Rat MIF obtained in REFERENCE EXAMPLE 6 was immobilized on a sensor chip CM5 (manufactured by Biacore Co., Ltd.). Thereafter, phosphate buffered saline (PBS) containing 10 μM of 3-[2-(4-oxo-4H-1,3-benzothiazin-2-yl)-4-pyridyl]propionic acid (the compound of EXAMPLE 308 described in WO 03/020719) was flown over the sensor chip and changes in surface plasmon resonance signal were monitored as the binding of the compound to rat MIF.

[1] = tested on: primary cardiomyocytes derived from rat neonates; assay: Inhibition of serum depletion-induced myocardial cell death (WST-8 viable cell count); assay type: cell-based; conditions: serum depletion, 4 days, WST-8 viable cell count
Source text: Neonates (within one day after birth) were obtained from pregnant Wistar rats purchased from Charles River Japan, Inc. and anesthetized with ether. After sterilization with 70% ethanol, the heart was removed with forceps. After washing with phosphate buffered saline (manufactured by Takara Co., Ltd., T900), the heart removed was minced with surgical scissors. The pieces of tissue were washed 4 or 5 times with phosphate buffered saline to remove most of non-cardiomyocytes derived from blood. To the pieces of tissue corresponding to 10 neonates, 5 ml of an enzyme solution [which is a solution of trypsin (1.25 mg) (manufactured by Difco) and collagenase (0.25 mg) (manufactured by Sigma) in phosphate buffer (1 ml)] was added. The mixture was stirred for 15 minutes with a stirrer while maintaining at 37° C. After 2.5 ml of the enzyme solution was replenished, the mixture was stirred for further 15 minutes, and this procedure was repeated twice. Subsequently, Medium 199 (manufactured by Gibco) containing 10% fetal cow serum (manufactured Biowicker, Inc.) was added to the mixture in a half volume of the enzyme solution to terminate the enzymatic reaction. After filtering through a cell strainer (manufactured by Falcon), the mixture was centrifuged at 400×g for 5 minutes to collect the cells.
The cells were then recovered, filtered through a cell strainer and centrifuged at 400×g for 5 minutes to collect primary cardiomyocytes derived from rat neonates.
Next, the primary cardiomyocytes derived from rat neonates (corresponding 10 neonates) were suspended in 2 ml of a hypotonic solution [solution obtained by dissolving NH4Cl (8.29 g), KHCO3 (1.0 g) and EDTA/2Na (ethylenediaminetetraacetic acid disodium; manufactured by Dojin Chemical Laboratory) (37 mg) in water (1 L)]. The suspension was allowed to stand for 3 minutes to disrupt erythrocytes. To the suspension 10 ml of Medium 199 containing 10% fetal cow serum was added, and the mixture was centrifuged at 400×g for 5 minutes to collect the primary cardiomyocytes derived from rat neonates. […] An aliquot of the cardiomyocytes suspension obtained was taken out and 0.3% trypan blue was added thereto. The mixture was gently stirred and the count of cardiomyocytes was counted with a hemocytometer.
Incubation was continued for further 4 days to induce cell death. […]
The mean value (±SD) in the minimum effective concentration of Compound 1 required for inhibiting the cell death was 0.015±0.011 μM. The concentration of Compound 1 required for increasing the mean cell count by 30% when compared to the cell count without the addition of Compound 1 was determined to be the minimum effective concentration. […]

[2] = tested on: Human normal articular chondrocytes; assay: Inhibitory activity against cell death of human articular chondrocytes induced by NO (MTT); assay type: cell-based; conditions: 100 μM; 1.5 mM sodium nitroprusside 5 hours; mean ±SD
Method: Human normal articular chondrocytes (Clonetics, Inc.) were proliferated in a growth medium for articular chondrocytes (CGM, Clonetics, Inc.) in monolayer culture. Then, the cells were suspended in 1.2% alginate-containing 155 mM NaCl solution in a density of 2.0×10^6 cells/ml, and beads having a 2 mm diameter were prepared using a syringe with a 22 gauge needle. The beads were incubated in a differentiation medium for articular chondrocytes (CDM, Clonetics, Inc.) charged in a 96-well round-bottomed plate (1 bead/well, manufactured by FALCON) for further 7 days. The medium was replaced by α-modified minimum essential medium containing Compound 1 (0.1 μM or 1 μM) and 10% fetal cow serum, followed by incubation for 48 hours and then for 5 hours in the co-presence of 1.5 mM sodium nitroprusside (NO generator, manufactured by Sigma). As control drugs, caspase 3 inhibitor (Z-DEVD-FMK (SEQ ID NO: 5), 100 μM, manufactured by R & D Systems, Inc.) and caspase 9 inhibitor (Z-LEHD-FMK (SEQ ID NO: 6), 100 μM, manufactured by R & D Systems, Inc.) were similarly monitored for their activities. After completion of the experiment, alginate was removed and the cell survival rate was determined by the MTT technique.
In the table, the numerical values indicate mean values (±SD) of the cell death inhibition rates as converted from the measurement data by the MTT technique. The cell survival rate after the addition of 1.5 mM sodium nitroprusside (without addition of either Compound 1 or control drug) was 31.9%.

Compound	myocardial cell death inhibitory activity [1]	Cell Death Inhibition Rate [2]	further results
O=C(O)CCc1ccnc(-c2nc(=O)c3ccccc3s2)c1 [3-[2-(4-oxo-4H-1,3-benzothiazin-2-yl)-4-pyridyl]propionic acid]			binding of the compound to rat MIF (changes in surface plasmon resonance signal) (rat MIF): could be selected as the substance binding to MIF
C=CC1=C(C)c2cc3[n-]c(cc4[n-]c(cc5nc(cc1n2)C(C)=C5C=C)c(C)c4CCC(=O)O)c(CCC(=O)O)c3C.O.[Fe+2] [hematin, reference compound]	exhibit the activity of inhibiting myocardial cell death		
Z-DEVD-FMK [reference compound]		49.7 ± 10.3	
Z-LEHD-FMK (Z N-cap, FMK C-terminus) [reference compound]		62.7 ± 10.6	
hemin [reference compound]	exhibit the activity of inhibiting myocardial cell death		

— patent publication US8173360B2, “Cell death inhibitor” (Takeda Pharmaceutical Company Limited, priority 2002, dated 2012)
